Test results from the supplement of paper PMC6045584.
± gives the standard deviation of the averaged measurements.

Compound: CC(=O)NCC(=O)N1[C@@H]2CC[C@H]1c1ccc(Nc3ncc(C(F)(F)F)c(NC4CCC4)n3)cc12
Assay: surviving fraction relative to DMSO-only wells; higher = less growth inhibition
Settings: 1000 nM; exposure time: 5 days
Outline: (§1)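 Viability values are CellTiter-Glo luminescence readings, given as surviving fraction against the median of DMSO-only wells. The readings were taken after 10 minutes at room temperature, following five days of continuous exposure to inhibitors at 0.5, 1, 5, 10, 50, 100, 500 and 1000 nM that began 24 hours after log-phase tumour cell lines were seeded at 250–500 cells per well in 384-well plates. Every line was screened three times and kept only if replicate Pearson r >0.7 and median Z' >0.3.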

Test System | surviving fraction
ZR751 BREAST | 0.897 ± 0.038

Compound: COc1cc2ncnc(Nc3ccc(F)c(Cl)c3)c2cc1OCCCN1CCOCC1 [GEFITINIB]
Assay: as above
Settings: 0.5 nM; exposure time: 5 days
Outline: as §1

Test System | surviving fraction
MG63 BONE | 1.02 ± 0.024
MHM BONE | 1.01 ± 0.046
NCIH441 LUNG | 1.17 ± 0.048
NOS1 BONE | 1.1 ± 0.073
NY BONE | 0.999 ± 0.032
OS25HAL BONE | 1.04 ± 0.052
OSHN BONE | 1.1 ± 0.012
RDES SOFT TISSUE | 1.07 ± 0.13
SCC47 HEADNECK | 1.1 ± 0.034
SCC90 HEADNECK | 1.15 ± 0.1
SG27 HEADNECK | 1.11 ± 0.041
SG28 HEADNECK | 1.14 ± 0.071
SG31 HEADNECK | 1.14 ± 0.13
SG32 HEADNECK | 1.33 ± 0.14
SG43 HEADNECK | 1.36 ± 0.4
SIHA CERVIX | 1.01 ± 0.017
SJSA1 BONE | 1.15 ± 0.059
SKBR3 BREAST | 1 ± 0.18
SNU475 LIVER | 1.05 ± 0.096
SUM44 BREAST | 1.27 ± 0.43
SUM149.B1*.S BREAST | 1.11 ± 0.044
SUM159 BREAST | 1.1 ± 0.026
SYO1 SYNOVIAL | 1.05 ± 0.068
T47D BREAST | 1.08 ± 0.027
U2OS BONE | 1.03 ± 0.057
VCAP PROSTATE | 1.13 ± 0.089
VP229 BREAST | 1.14 ± 0.062
YAMATO SYNOVIAL | 1.24 ± 0.098
ZR751 BREAST | 1.22 ± 0.054

Same assay, conditions: 1 nM; exposure time: 5 days

Test System | surviving fraction
MG63 BONE | 0.998 ± 0.013
MHM BONE | 1.02 ± 0.038
NCIH441 LUNG | 1.15 ± 0.064
NOS1 BONE | 1.11 ± 0.032
NY BONE | 1 ± 0.035
OS25HAL BONE | 1.04 ± 0.041
OSHN BONE | 1.11 ± 0.017
RDES SOFT TISSUE | 1.06 ± 0.15
SCC47 HEADNECK | 1.1 ± 0.058
SCC90 HEADNECK | 1.06 ± 0.15
SG27 HEADNECK | 1.1 ± 0.074
SG28 HEADNECK | 1.2 ± 0.037
SG31 HEADNECK | 1.09 ± 0.18
SG32 HEADNECK | 1.37 ± 0.097
SG43 HEADNECK | 1.21 ± 0.45
SIHA CERVIX | 1.01 ± 0.076
SJSA1 BONE | 1.59 ± 0.071
SKBR3 BREAST | 1.04 ± 0.14
SNU475 LIVER | 1.05 ± 0.05
SUM149.B1*.S BREAST | 1.1 ± 0.027
SUM159 BREAST | 1.1 ± 0.034
SYO1 SYNOVIAL | 0.97 ± 0.049
T47D BREAST | 1.05 ± 0.064
U2OS BONE | 0.9987 ± 0.0084
VCAP PROSTATE | 1.11 ± 0.14
VP229 BREAST | 1.08 ± 0.09
YAMATO SYNOVIAL | 1.21 ± 0.05
ZR751 BREAST | 1 ± 0.1

Same assay, conditions: 5 nM; exposure time: 5 days

Test System | surviving fraction
MG63 BONE | 1.09 ± 0.041
MHM BONE | 1.06 ± 0.051
NCIH441 LUNG | 1.07 ± 0.089
NOS1 BONE | 1.25 ± 0.23
NY BONE | 1.09 ± 0.036
OS25HAL BONE | 1.06 ± 0.035
OSHN BONE | 1.12 ± 0.013
RDES SOFT TISSUE | 1.05 ± 0.058
SCC47 HEADNECK | 1.12 ± 0.043
SCC90 HEADNECK | 1.03 ± 0.023
SG27 HEADNECK | 1.03 ± 0.037
SG28 HEADNECK | 1.06 ± 0.075
SG31 HEADNECK | 1.1 ± 0.28
SG32 HEADNECK | 1.39 ± 0.32
SG43 HEADNECK | 0.814 ± 0.26
SIHA CERVIX | 1.08 ± 0.053
SJSA1 BONE | 1.62 ± 0.018
SKBR3 BREAST | 1.04 ± 0.089
SNU475 LIVER | 1.01 ± 0.016
SUM44 BREAST | 1.2 ± 0.32
SUM149.B1*.S BREAST | 1.11 ± 0.021
SUM159 BREAST | 1.09 ± 0.02
SYO1 SYNOVIAL | 0.982 ± 0.068
T47D BREAST | 1.07 ± 0.061
U2OS BONE | 1.03 ± 0.015
VCAP PROSTATE | 1.13 ± 0.12
VP229 BREAST | 1.07 ± 0.033
YAMATO SYNOVIAL | 1.25 ± 0.043
ZR751 BREAST | 1.13 ± 0.067

Same assay, conditions: 10 nM; exposure time: 5 days

Test System | surviving fraction
MG63 BONE | 1.08 ± 0.038
MHM BONE | 1.05 ± 0.051
NCIH441 LUNG | 1.114 ± 0.0055
NOS1 BONE | 1.22 ± 0.29
NY BONE | 1.06 ± 0.031
OS25HAL BONE | 1.09 ± 0.066
OSHN BONE | 1.13 ± 0.026
RDES SOFT TISSUE | 1.17 ± 0.079
SCC47 HEADNECK | 1.06 ± 0.053
SCC90 HEADNECK | 0.85 ± 0.051
SG27 HEADNECK | 1.16 ± 0.12
SG28 HEADNECK | 1.03 ± 0.035
SG31 HEADNECK | 1.11 ± 0.24
SG32 HEADNECK | 1.19 ± 0.24
SG43 HEADNECK | 0.825 ± 0.2
SIHA CERVIX | 1.07 ± 0.091
SJSA1 BONE | 0.602 ± 0.04
SKBR3 BREAST | 1.02 ± 0.11
SNU475 LIVER | 1.03 ± 0.05
SUM44 BREAST | 1.19 ± 0.23
SUM149.B1*.S BREAST | 1.1 ± 0.023
SUM159 BREAST | 1.06 ± 0.025
SYO1 SYNOVIAL | 0.98 ± 0.012
T47D BREAST | 1.03 ± 0.029
U2OS BONE | 0.989 ± 0.0078
VCAP PROSTATE | 1.15 ± 0.14
VP229 BREAST | 0.974 ± 0.098
YAMATO SYNOVIAL | 1.36 ± 0.15
ZR751 BREAST | 0.983 ± 0.046
